Results from patent US20100197602A1, “USE OF FOLLICULAR GONADOTROPIN RELEASING PEPTIDE AS A THERAPEUTIC AGENT IN THE TREATMENT OF STREPTOCOCCUS PNEUMONIAE INFECTION” (priority 2007, published 2010).
Residues, ends and D or L forms follow the SMILES beside them.

Legend:
[1] = test system: HIV-1IIIB; assay: HIV-1 antiviral assay (CPE reduction, MTS); assay type: cell-based; conditions: peptide 10 micrograms per ml, 6 days post-infection
[2] = test system: HCMV strain AD169; assay: HCMV plaque reduction assay; assay type: cell-based; conditions: HCMV AD169 in MRC-5 cells; peptide 10 micrograms per ml; 7-10 days
Description: Ganciclovir was used as positive control.

[3] = test system: MRSA; conditions: 5 micrograms per ml
[4] = in vitro; conditions: human, CEM-SS cells
[5] = test system: Streptococcus pneumoniae; assay type: cell-based; conditions: 5 micrograms per ml
[6] = Cell viability in HepG2-2.2.15 cells (dye uptake) of the HBV assay; conditions: human
[7] = test system: Pseudomonas aeruginosa; assay type: cell-based; conditions: 5 micrograms per ml
[8] = in vitro; conditions: human, MRC-5 cells (human embryonal lung fibroblasts)

Compound: Cc1cn([C@H]2C[C@H](N=[N+]=[N-])[C@@H](CO)O2)c(=O)[nH]c1=O [AZT]
- % CPE reduction in HIV-1 infected CEM-SS cells [1]: 99%

Compound: Nc1nc(O)c2ncn(COC(CO)CO)c2n1 [Ganciclovir]
- % plaque reduction [2]: 100%

Compound: C[C@@H](O)[C@H](N)C(=O)N[C@@H](CC(=O)O)C(=O)N[C@H](C(=O)N[C@@H](CO)C(=O)N[C@@H](Cc1c[nH]cn1)C(=O)N[C@@H](Cc1c[nH]cn1)C(=O)N[C@@H](CC(=O)O)C(=O)N[C@@H](CCC(N)=O)C(=O)N[C@@H](CC(=O)O)C(=O)N[C@@H](Cc1c[nH]cn1)C(=O)N1CCC[C@H]1C(=O)N[C@H](C(=O)N[C@@H](Cc1ccccc1)C(=O)N[C@@H](CC(N)=O)C(=O)O)[C@@H](C)O)[C@@H](C)O [FGRP, Thr-Asp-Thr-Ser-His-His-Asp-Gln-Asp-His-Pro-Thr-Phe-Asn-OH] (H-TDTSHHDQDHPTFN-OH)
- % inhibition [3]: 0.0%
- viability at 10 micrograms per ml [4]: 100%
- % inhibition [5]: 100.0%
- viability at 144 h, 10 micrograms per ml [6]: 100%
- % inhibition [7]: 0.0%
- viability at 144 h [8]: 100%
